From patent US11198695B2, “Fused ring derivative having MGAT-2 inhibitory activity” (Shionogi & Co., Ltd., priority 2017, dated 2021)

target: recombinant human MGAT2 (Homo sapiens (Human), UniProt Q3SYC2); test: Measurement of human MGAT2 inhibitory activity; format: biochemical; conditions: read-out: IC50 (concentration exhibiting 50% enzyme inhibition), Table 53
In short: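 RapidFire ESI-MS read-out of the diolein/diolein-d5 peak ratio gave % inhibition, with no-enzyme and full-enzyme wells as 100% and 0%. Reactions ran 1 h at room temperature at pH 7.4 (phosphate, 2 mmol/L DTT), using Flag-tagged human MGAT2 membranes from Sf9 cells and a substrate solution of 30 μmol/L 2-oleoylglycerol and 10 μmol/L oleoyl-CoA.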

Chain of recombinant human MGAT2 (Q3SYC2 whole entry): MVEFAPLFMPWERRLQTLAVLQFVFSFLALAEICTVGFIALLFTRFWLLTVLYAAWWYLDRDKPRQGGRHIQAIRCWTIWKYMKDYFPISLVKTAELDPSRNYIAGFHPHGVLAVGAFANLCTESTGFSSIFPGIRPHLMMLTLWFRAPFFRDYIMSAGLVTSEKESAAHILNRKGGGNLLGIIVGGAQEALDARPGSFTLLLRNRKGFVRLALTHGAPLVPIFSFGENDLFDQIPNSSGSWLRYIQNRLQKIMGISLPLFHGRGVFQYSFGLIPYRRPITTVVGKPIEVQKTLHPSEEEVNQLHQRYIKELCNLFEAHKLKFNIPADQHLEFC

`CS(=O)(=O)CC(=O)Nc1c2c(nn1-c1ccncn1)C[C@]1(CCOc3cc(OCC(F)(F)F)ccc31)NC2=O` [II-7] and `CS(=O)(=O)CC(=O)Nc1c2c(nn1CCn1cccn1)C[C@]1(CCOc3cc(OCC(F)(F)F)ccc31)NC2=O` [II-27] are within 1.5-fold of each other in IC50: 20 nM for the first, 21 nM for the second.

`CS(=O)(=O)CC(=O)Nc1c2c(nn1CCC1CC1)C[C@@]1(CCOc3cc(OCC(F)(F)F)ccc31)NC2=O` [II-9] and `COCCCn1nc2c(c1NC(=O)CS(C)(=O)=O)C(=O)N[C@@]1(CCOc3cc(OCC(F)(F)F)ccc31)C2` [II-26] are the same in IC50: 9.5 nM for the first, 9.5 nM for the second.

Going from `CS(=O)(=O)CC(=O)Nc1c2c(nn1C1CC3(COC3)C1)C[C@]1(CCc3cc(OCC(F)(F)F)ccc31)NC2=O` [II-11] to `CS(=O)(=O)CC(=O)Nc1c2c(nn1CC1CC(F)(F)C1)C[C@]1(CCc3cc(OCC(F)(F)F)ccc31)NC2=O` [II-12], the IC50 falls from 64 nM to 35 nM (1.8-fold). The second is the more potent here.

Going from `CS(=O)(=O)CC(=O)Nc1c2c(nn1CCc1ccccc1F)C[C@]1(CCc3cc(OCC(F)(F)F)ccc31)NC2=O` [II-13] to `CS(=O)(=O)CC(=O)Nc1c2c(nn1CCc1ccc(F)cc1)C[C@@]1(CCc3cc(OCC(F)(F)F)ccc31)NC2=O` [II-23], the IC50 falls from 27 nM to 18 nM (1.5-fold).

First: CS(=O)(=O)CC(=O)Nc1c2c(nn1C1CCCCC1)C[C@]1(CCOc3cc(OCC(F)(F)F)ccc31)NC2=O [II-15]
Second: CS(=O)(=O)CC(=O)Nc1c2c(nn1CCCC(F)(F)F)C[C@]1(CCOc3cc(OCC(F)(F)F)ccc31)NC2=O [II-65]
The IC50 of the first is 6.3-fold higher: 12 nM for the first, 1.9 nM for the second.

Going from `CS(=O)(=O)CC(=O)Nc1c2c(nn1-c1ccc(C#N)cn1)CC1(CN(Cc3ccc(C(F)(F)F)cc3)C1)NC2=O` [II-16] to `CS(=O)(=O)CC(=O)Nc1c2c(nn1-c1ccc(C#N)cn1)CC1(CN(C(=O)c3ccc(C(F)(F)F)cc3)C1)NC2=O` [II-29], the IC50 rises from 28 nM to 220 nM (7.9-fold).

First: CS(=O)(=O)CC(=O)Nc1c2c(nn1-c1ccc(C#N)cn1)C[C@](c1ccc(OCC(F)(F)F)cc1)(C(F)(F)F)NC2=O [II-17]
Second: CC(=O)Nc1c2c(nn1-c1ccc(C#N)cn1)C[C@@]1(CCc3cc(OCC(F)(F)F)ccc31)NC2=O [II-51]
The IC50 of the first is 12-fold lower: 38 nM for the first, 440 nM for the second. The first is the more potent here.

`CS(=O)(=O)CC(=O)Nc1c2c(nn1CCOCC(F)F)C[C@@]1(CCc3cc(OCC(F)(F)F)ccc31)NC2=O` [II-18] and `CS(=O)(=O)CC(=O)Nc1c2c(nn1CCOCC(F)F)C[C@]1(CCOc3cc(OCC(F)(F)F)ccc31)NC2=O` [II-24] are within 1.5-fold of each other in IC50: 47 nM for the first, 32 nM for the second.

Compared with `CS(=O)(=O)CC(=O)Nc1c2c(nn1CCCCC(F)(F)F)C[C@@]1(CCc3cc(OCC(F)(F)F)ccc31)NC2=O` [II-19], `CS(=O)(=O)CC(=O)Nc1c2c(nn1CCCOC(F)(F)F)C[C@@]1(CCc3cc(OCC(F)(F)F)ccc31)NC2=O` [II-20] is 7.7-fold lower in IC50: 12 nM for the first, 1.56 nM for the second. The second is the more potent here.

Going from `COCCCn1nc2c(c1NC(=O)CS(C)(=O)=O)C(=O)N[C@]1(CCc3cc(OCC(F)(F)F)ccc31)C2` [II-21] to `CS(=O)(=O)CC(=O)Nc1c2c(nn1CCn1cccn1)C[C@@]1(CCc3cc(OCC(F)(F)F)ccc31)NC2=O` [II-22], the IC50 rises from 17 nM to 32 nM (1.9-fold).

Compared with `CS(=O)(=O)CC(=O)Nc1c2c(nn1CCCCC(F)(F)F)C[C@]1(CCOc3cc(OCC(F)(F)F)ccc31)NC2=O` [II-25], `CS(=O)(=O)CC(=O)Nc1c2c(nn1CCCOC(F)(F)F)C[C@]1(CCOc3cc(OCC(F)(F)F)ccc31)NC2=O` [II-64] is 2.4-fold lower in IC50: 7 nM for the first, 2.9 nM for the second. The second is the more potent here.

Going from `CS(=O)(=O)CC(=O)Nc1c2c(nn1CCc1ccc(F)cc1)C[C@]1(CCOc3cc(OCC(F)(F)F)ccc31)NC2=O` [II-28] to `CSCC(=O)Nc1c2c(nn1CCC1CC1)C[C@]1(CCc3cc(OCC(F)(F)F)ccc31)NC2=O` [II-38], the IC50 rises from 8.7 nM to 30 nM (3.4-fold).

First: CS(=O)(=O)CC(=O)Nc1c2c(nn1-c1ccc(C#N)cn1)C[C@]1(CCc3cc(Br)ccc31)NC2=O [II-30]
Second: CS(=O)(=O)CC(=O)Nc1c2c(nn1-c1ccc(C#N)cn1)C[C@]1(CCc3ccccc31)NC2=O [II-52]
The IC50 of the first is 4.3-fold lower: 8.7 nM for the first, 37 nM for the second.

First: CS(=O)(=O)CC(=O)Nc1c2c(nn1CCC1CC1)C[C@@]1(CCc3cc(NC4CC(F)(F)C4)ccc31)NC2=O [II-32]
Second: CS(=O)(=O)CC(=O)Nc1c2c(nn1CCC1CC1)C[C@@]1(CCc3cc(N4CC(F)C4)ccc31)NC2=O [II-34]
The IC50 of the first is 2.4-fold lower: 17 nM for the first, 41 nM for the second.

`CS(=O)(=O)CC(=O)Nc1c2c(nn1CCC1CC1)C[C@@]1(CCc3cc(N4CC(c5ccccc5)C4)ccc31)NC2=O` [II-33] and `CS(=O)(=O)CC(=O)Nc1c2c(nn1CCC1CC1)C[C@@]1(CCc3cc(N4CC(Oc5ccccc5)C4)ccc31)NC2=O` [II-43] are within 1.5-fold of each other in IC50: 3.3 nM for the first, 3 nM for the second.

First: CS(=O)(=O)CC(=O)Nc1c2c(nn1CCC1CC1)C[C@@]1(CCc3cc(N4CC(n5cccn5)C4)ccc31)NC2=O [II-35]
Second: CS(=O)(=O)CC(=O)Nc1c2c(nn1CCC1CC1)C[C@@]1(CCc3cc(N4CC(C(F)F)C4)ccc31)NC2=O [II-40]
The IC50 of the first is 2.2-fold higher: 48 nM for the first, 22 nM for the second.

First: CS(=O)(=O)CC(=O)Nc1c2c(nn1CCC1CC1)C[C@@]1(CCc3cc(N4CC5(CCOCC5)C4)ccc31)NC2=O [II-36]
Second: CS(=O)(=O)CC(=O)Nc1c2c(nn1CCC1CC1)C[C@@]1(CCc3cc(N4CC5(COC5)C4)ccc31)NC2=O [II-50]
The IC50 of the first is 3.8-fold lower: 53 nM for the first, 200 nM for the second. The first is the more potent here.

First: CC1(C)CN(c2ccc3c(c2)CC[C@@]32Cc3nn(CCC4CC4)c(NC(=O)CS(C)(=O)=O)c3C(=O)N2)C1 [II-37]
Second: COC1(C)CN(c2ccc3c(c2)CC[C@@]32Cc3nn(CCC4CC4)c(NC(=O)CS(C)(=O)=O)c3C(=O)N2)C1 [II-44]
The IC50 of the first is 4.2-fold lower: 12 nM for the first, 51 nM for the second. The first is the more potent here.

Going from `C[S+]([O-])CC(=O)Nc1c2c(nn1CCC1CC1)C[C@]1(CCc3cc(OCC(F)(F)F)ccc31)NC2=O` (some centres unmarked) [II-39] to `O=C(COC(F)(F)F)Nc1c2c(nn1CCC1CC1)C[C@]1(CCc3cc(OCC(F)(F)F)ccc31)NC2=O` [II-60], the IC50 rises from 42 nM to 93 nM (2.2-fold). The first is the more potent here.

`CC(C)OC1CN(c2ccc3c(c2)CC[C@@]32Cc3nn(CCC4CC4)c(NC(=O)CS(C)(=O)=O)c3C(=O)N2)C1` [II-41] and `CCOC1CN(c2ccc3c(c2)CC[C@@]32Cc3nn(CCC4CC4)c(NC(=O)CS(C)(=O)=O)c3C(=O)N2)C1` [II-42] are within 1.5-fold of each other in IC50: 40 nM for the first, 46 nM for the second.

First: COC(=O)CC1CN(c2ccc3c(c2)CC[C@@]32Cc3nn(CCC4CC4)c(NC(=O)CS(C)(=O)=O)c3C(=O)N2)C1 [II-45]
Second: CC(C)(O)C1CN(c2ccc3c(c2)CC[C@@]32Cc3nn(CCC4CC4)c(NC(=O)CS(C)(=O)=O)c3C(=O)N2)C1 [II-63]
The IC50 of the first is 3.1-fold lower: 98 nM for the first, 300 nM for the second.

Compared with `CS(=O)(=O)CC(=O)Nc1c2c(nn1-c1ccc(C#N)cn1)CC1(CN(c3ccc(C(F)(F)F)cc3F)C1)NC2=O` [II-53], `CS(=O)(=O)CC(=O)Nc1c2c(nn1-c1ccc(C#N)cn1)C[C@]1(CCc3cc(N4CC(F)C4)ccc31)NC2=O` [II-55] is 3.1-fold higher in IC50: 14 nM for the first, 44 nM for the second.

`COCCCn1nc2c(c1-c1nn[nH]n1)C(=O)N[C@@]1(CCc3cc(OCCCC(F)(F)F)ccc31)C2` [II-56] and `N#Cc1ccc(-n2nc3c(c2NC(=O)c2cocn2)C(=O)N[C@@]2(CCc4cc(OCC(F)(F)F)ccc42)C3)nc1` [II-59] are within 1.5-fold of each other in IC50: 47 nM for the first, 33 nM for the second.

First: COC1CN(c2ccc3c(c2)CC[C@]32Cc3nn(-c4ccc(C#N)cn4)c(NC(=O)CS(C)(=O)=O)c3C(=O)N2)C1 [II-57]
Second: N#Cc1ccc(-n2nc3c(c2C(=O)NCC2(CO)COC2)C(=O)N[C@@]2(CCc4cc(OCC(F)(F)F)ccc42)C3)nc1 [II-62]
The IC50 of the first is 4.3-fold higher: 66 nM for the first, 15.3 nM for the second. The second is the more potent here.

`CS(=O)(=O)CC(=O)Nc1c2c(nn1CCC1CC1)CC1(CN(c3ccc(C(F)(F)F)cc3)C1)NC2=O` [II-58] and `Cn1c2c(c(NC(=O)CS(C)(=O)=O)c1-c1ccccc1)C(=O)N[C@@]1(CCc3cc(OCC(F)(F)F)ccc31)C2` [II-61] are within 1.5-fold of each other in IC50: 16 nM for the first, 16.7 nM for the second.
